Reference: patent US7084166B2, “Bis-heterocyclic compounds with antitumour and chemosensitising activity” (Sigma-Tau Industrie Farmaceutichee Riunite S.p.A., priority 2000, dated 2006)
Like-named read-outs stand apart in the source and are kept apart here. Values belong to the compound of their own block, whether it stands above or below them.

Tests used:
Assay type in all cases: cell-based
[1] = system: NB4 cells (acute promyelocytic leukaemia); test: Flow cytofluorimetric analysis of cell cycle; design: APOPTOSIS: unit not given here; conditions: for effect of the compound alone on cell cycle and apoptosis (in words): compound alone (ST 1346: high doses)
Protocol: The first line used was the NB4 cell line, bearing the t(15;17) chromosomal translocation which generates the fusion protein PML/RARα.
(§1) To assess the effect of the tested compounds on the various phases of the cell cycle, on the third day of treatment 500,000 cells were harvested, centrifuged at 1,000 rpm for 10 minutes, washed twice in PBS w/o (PBS without calcium and magnesium) and fixed in a solution of 50% PBS w/o+50% methanol/acetone (1:4 v/v) for at least 1 hour; the cells were then centrifuged as described, washed in PBS w/o and centrifuged again.
(§2) 200 μl of propidium iodide 100 μg/ml and 200 μl of RNase 150 kU/mg were then added to the cell pellet.
(§3) After a 30-min incubation in the dark at room temperature, the samples were analysed by flow cytofluirometry.

[2] = system: NB4 cells (acute promyelocytic leukaemia); test: Cell differentiation by reduction of nitroblue tetrazolium (NBT), with suboptimal ATRA; conditions: for AC50 / fold induction (differentiation, compound + ATRA vs ATRA alone): combined with suboptimal doses of ATRA, NBT; for AC50: 3 days, read-out: AC50 (concentration at which the tested compound induces 50% of cell differentiation)
Protocol: The first line used was the NB4 cell line, bearing the t(15;17) chromosomal translocation which generates the fusion protein PML/RARα. This line is very sensitive to the differentiative action of pharmacological doses of ATRA (10^−7–10^−6 M).
(§4) The HL60 and NB4 cells were seeded at a density of 150,000 cells/ml in RPMI 1640 medium containing 10% foetal calf serum, and were treated with the tested compounds in the presence and absence of suboptimal doses of ATRA (5–10 nM for NB4 and 0.5 μM for HL60, respectively) in the dark, and returned to the incubator for 3 days without ever replacing the culture medium.
(§5) To analyse the differentiative effect of the tested compounds vs ATRA, on the third day of treatment 500,000 viable cells were harvested from each sample, centrifuged for 10 minutes at 1.000 rpm and resuspended in 1 ml of RPMI 1640 medium containing 10% foetal calf serum, 1 mg/ml of nitroblue tetrazolium (NBT) and 100 ng of PMA (phorbol 12-myristate 13-acetate).
(§6) The cells thus resuspended were incubated in the dark at 37° C. for 60 minutes.
(§7) At the end of the incubation, the cell suspension was centrifuged for 10 minutes at 10,000 rpm; the pellet obtained was then resuspended in 1 ml of PBS containing 10% Triton X-100 and sonicated to lysis.
(§8) Spectrophotometric readings of the samples were then taken at a wavelength of 540 nm: samples containing differentiated cells shifted towards a violet colour, whereas control samples and/or samples with non-differentiated cells were colourless or, at any rate, much less intensely coloured.
(§9) The AC50 (Activating Concentration) is the concentration at which the tested compound induces 50% of cell differentiation.
(§10) Fold Induction is the increase in the differentiation value of the cell sample treated with the tested compound +ATRA vs the value of the cell sample treated with ATRA alone. This value provides an indication of the ability (potency) of the tested compound to enhance ATRA induced cell differentiation.

[3] = system: HL60 cells (acute promyelocytic leukaemia); test: as above; conditions: combined with suboptimal doses of ATRA; for AC50: Homo sapiens, HL-60, 72 h, 3 days, read-out: AC50 (concentration at which the tested compound induces 50% of cell differentiation)
Protocol: (§11) The second line used was the HL60 cell line which responds to ATRA (but is less sensitive than the NB4 cell line).
as §4, §5, §6, §7, §8, §9, §10

[4] = system: HL60 cells (acute promyelocytic leukaemia); test: Flow cytofluorimetric analysis of cell cycle; conditions: day 3
Protocol: as §11, §4, §1, §2, §3

[5] = compound 1 μM + ATRA 0.01 μM, day 3
[6] = compound 1 μM + ATRA 0.01 μM, day 3, listed as ST1346
[7] = compound 5 μM + ATRA 0.01 μM, day 3
[8] = compound 5 μM + ATRA 0.01 μM, day 3, listed as ST1346
[9] = compound 10 μM + ATRA 0.01 μM, day 3
[10] = compound 10 μM + ATRA 0.01 μM, day 3, listed as ST1346
[11] = compound 50 μM + ATRA 0.01 μM, day 3
[12] = compound 50 μM + ATRA 0.01 μM, day 3, listed as ST1346

fold induction (differentiation, compound + ATRA vs ATRA alone) [2]: 3.0 | fold induction (differentiation, compound + ATRA vs ATRA alone) [3]: 2.7
Compound: OCCCCC(c1c[nH]c2ccccc12)c1c[nH]c2ccccc12 [ST 1346, 5-hydroxy-1,1-di-(indol-3-yl)-pentane]
APOPTOSIS [1, 5]: 17.5 | G0/G1 [1, 5]: 57.1 | G2/M [1, 5]: 13.9 | S [1, 5]: 29.0 | APOPTOSIS [1, 6]: 14 | G0/G1 [1, 6]: 61.5 | G2/M [1, 6]: 12.9 | S [1, 6]: 25.6 | APOPTOSIS [1, 7]: 17.0 | G0/G1 [1, 7]: 58.4 | G2/M [1, 7]: 13.9 | S [1, 7]: 27.7 | APOPTOSIS [1, 8]: 13.5 | G0/G1 [1, 8]: 58.0 | G2/M [1, 8]: 13.5 | S [1, 8]: 28.5 | APOPTOSIS [1, 9]: 15.0 | G0/G1 [1, 9]: 58.4 | G2/M [1, 9]: 13.0 | S [1, 9]: 28.6 | APOPTOSIS [1, 10]: 13 | G0/G1 [1, 10]: 60.0 | G2/M [1, 10]: 12.6 | S [1, 10]: 27.4 | APOPTOSIS [1, 11]: 10.0 | G0/G1 [1, 11]: 82.2 | G2/M [1, 11]: 8.0 | S [1, 11]: 9.8 | APOPTOSIS [1, 12]: 17 | G0/G1 [1, 12]: 84.2 | G2/M [1, 12]: 6.3 | S [1, 12]: 9.5 | APOPTOSIS ([1]; compound alone 1 μM, day 3): 23 | G0/G1 ([1]; compound alone 1 μM, day 3): 46.9 | G2/M ([1]; compound alone 1 μM, day 3): 15.7 | S ([1]; compound alone 1 μM, day 3): 37.4 | APOPTOSIS ([1]; compound alone 5 μM, day 3): 24 | G0/G1 ([1]; compound alone 5 μM, day 3): 47.4 | G2/M ([1]; compound alone 5 μM, day 3): 13.8 | S ([1]; compound alone 5 μM, day 3): 38.8 | APOPTOSIS ([1]; compound alone 10 μM, day 3): 23 | G0/G1 ([1]; compound alone 10 μM, day 3): 50.0 | G2/M ([1]; compound alone 10 μM, day 3): 14.7 | S ([1]; compound alone 10 μM, day 3): 35.3 | APOPTOSIS ([1]; compound alone 50 μM, day 3): 46 | G0/G1 ([1]; compound alone 50 μM, day 3): 59.4 | G2/M ([1]; compound alone 50 μM, day 3): 7.3 | S ([1]; compound alone 50 μM, day 3): 33.3 | effect of the compound alone on cell cycle and apoptosis (in words) [1]: induce growth arrest (in the G0/G1 phase of the cell cycle) and apoptosis | AC50 ([2]; Homo sapiens, NB-4, 72 h): 1.5 ± 0.5 µM | dose reaching maximal effect in sensitising ATRA-induced terminal differentiation ([2]; doses 1, 5, 10, 50 μM with suboptimal ATRA): 10 µM | AC50 [3]: 14.8 ± 1.6 µM

fold induction (differentiation, compound + ATRA vs ATRA alone) [2]: 1.8 | fold induction (differentiation, compound + ATRA vs ATRA alone) [3]: 1.6
Compound: Cn1cc(C(CCCCO)c2cn(C)c3ccccc23)c2ccccc21 [ST 1974, 5,5-bis-(1-methyl-1H-indol-3-yl)-1 Pentanol]
AC50 ([2]; Homo sapiens, NB-4, 72 h): 7.8 ± 2.6 µM | AC50 [3]: 9.5 ± 2.6 µM | G0/G1 ([4]; compound 1 μM + ATRA 0.5 μM): 62.0 | G2/M ([4]; compound 1 μM + ATRA 0.5 μM): 11.7 | S ([4]; compound 1 μM + ATRA 0.5 μM): 26.3 | G0/G1 ([4]; compound 5 μM + ATRA 0.5 μM): 63.8 | G2/M ([4]; compound 5 μM + ATRA 0.5 μM): 10.5 | S ([4]; compound 5 μM + ATRA 0.5 μM): 25.7 | G0/G1 ([4]; compound 10 μM + ATRA 0.5 μM): 65.4 | G2/M ([4]; compound 10 μM + ATRA 0.5 μM): 10.5 | S ([4]; compound 10 μM + ATRA 0.5 μM): 24.1 | G0/G1 ([4]; compound 50 μM + ATRA 0.5 μM): 81.8 | G2/M ([4]; compound 50 μM + ATRA 0.5 μM): 10.6 | S ([4]; compound 50 μM + ATRA 0.5 μM): 7.6 | G0/G1 ([4]; compound alone 1 μM): 58.9 | G2/M ([4]; compound alone 1 μM): 11.1 | S ([4]; compound alone 1 μM): 30 | G0/G1 ([4]; compound alone 5 μM): 59.3 | G2/M ([4]; compound alone 5 μM): 11.4 | S ([4]; compound alone 5 μM): 29.3 | G0/G1 ([4]; compound alone 10 μM): 57.8 | G2/M ([4]; compound alone 10 μM): 12.2 | S ([4]; compound alone 10 μM): 30 | G0/G1 ([4]; compound alone 50 μM): 67.7 | G2/M ([4]; compound alone 50 μM): 12.3 | S ([4]; compound alone 50 μM): 20

Compound: O=C(O)CCC(c1c[nH]c2ccccc12)c1c[nH]c2ccccc12 [ST 1961, 4,4-di-(1H-indolyl-)butanoic acid]
APOPTOSIS ([1]; compound alone 1 μM, day 3): 18.5 | G0/G1 ([1]; compound alone 1 μM, day 3): 47.5 | G2/M ([1]; compound alone 1 μM, day 3): 15.6 | S ([1]; compound alone 1 μM, day 3): 36.9 | APOPTOSIS ([1]; compound alone 5 μM, day 3): 24.0 | G0/G1 ([1]; compound alone 5 μM, day 3): 49.7 | G2/M ([1]; compound alone 5 μM, day 3): 13.0 | S ([1]; compound alone 5 μM, day 3): 37.3 | APOPTOSIS ([1]; compound alone 10 μM, day 3): 24.0 | G0/G1 ([1]; compound alone 10 μM, day 3): 48.4 | G2/M ([1]; compound alone 10 μM, day 3): 14.1 | S ([1]; compound alone 10 μM, day 3): 37.5 | APOPTOSIS ([1]; compound alone 50 μM, day 3): 24.0 | G0/G1 ([1]; compound alone 50 μM, day 3): 56.3 | G2/M ([1]; compound alone 50 μM, day 3): 14.0 | S ([1]; compound alone 50 μM, day 3): 29.7 | AC50 [2]: 6.6 ± 2 µM | fold induction (differentiation, compound + ATRA vs ATRA alone) [2]: 1.4

fold induction (differentiation, compound + ATRA vs ATRA alone) [2]: 2.5
Compound: OCCCC(c1c[nH]c2ccccc12)c1c[nH]c2ccccc12 [ST 1707, 1,1-di(indol-3-yl)-4-hydroxy-butane]
APOPTOSIS [1, 5]: 17.0 | G0/G1 [1, 5]: 65.4 | G2/M [1, 5]: 11.8 | S [1, 5]: 22.8 | APOPTOSIS [1, 7]: 14.0 | G0/G1 [1, 7]: 69.8 | G2/M [1, 7]: 11.3 | S [1, 7]: 18.9 | APOPTOSIS [1, 9]: 13.0 | G0/G1 [1, 9]: 70.4 | G2/M [1, 9]: 11.5 | S [1, 9]: 18.1 | APOPTOSIS [1, 11]: 11.5 | G0/G1 [1, 11]: 80.6 | G2/M [1, 11]: 9.0 | S [1, 11]: 10.4 | APOPTOSIS ([1]; compound alone 1 μM, day 3): 17.0 | G0/G1 ([1]; compound alone 1 μM, day 3): 51.7 | G2/M ([1]; compound alone 1 μM, day 3): 10.1 | S ([1]; compound alone 1 μM, day 3): 38.2 | APOPTOSIS ([1]; compound alone 5 μM, day 3): 19.5 | G0/G1 ([1]; compound alone 5 μM, day 3): 52.5 | G2/M ([1]; compound alone 5 μM, day 3): 11.1 | S ([1]; compound alone 5 μM, day 3): 36.4 | APOPTOSIS ([1]; compound alone 10 μM, day 3): 17.5 | G0/G1 ([1]; compound alone 10 μM, day 3): 52.2 | G2/M ([1]; compound alone 10 μM, day 3): 10.8 | S ([1]; compound alone 10 μM, day 3): 37.0 | APOPTOSIS ([1]; compound alone 50 μM, day 3): 17.0 | G0/G1 ([1]; compound alone 50 μM, day 3): 52.0 | G2/M ([1]; compound alone 50 μM, day 3): 12.0 | S ([1]; compound alone 50 μM, day 3): 36.0 | effect of the compound alone on cell cycle and apoptosis (in words) [1]: does not induce apoptosis | AC50 ([2]; Homo sapiens, NB-4, 72 h): 8.3 ± 0.05 µM
